Tests used:
[1] = test system: SS cells (homozygous sickle cell blood); assay: In-vitro time-dependent RBC sickling inhibition under hypoxia; assay type: cell-based, human; details: 2 mM; for inhibition at 2000 µM: Homo sapiens, SS cells 20% hematocrit, hypoxia (4% oxygen/96% nitrogen)
Method: Red blood cell sickling inhibition studies with Pro-7 and the control TD-7 was conducted using previously reported procedure. Blood suspensions from subjects with homozygous SCD (hematocrit 20%) were incubated under air in the absence or presence of test compounds at 37 °C for 1 h to ensure that binding has attained equilibrium. […] Aliquot samples were fixed with 2% glutaraldehyde solution without exposure to air, and then subjected to microscopic morphological analysis.
Human normal whole blood was used to assess the degree of Hb modification and Hb oxygen affinity (P50 shift), while sickle blood was used to investigate RBC sickling inhibition. […] The results summarized in Table 1 and Figure 4A–C show time-dependent effects for all three pharmacodynamic activities. […] Even at the end of the 24-h experiment, Pro-7 activity was still increasing.

[2] = target: T1, Hb in human normal whole blood (Homo sapiens, UniProt P69905); assay: In-vitro time-dependent oxygen equilibrium study (P50 shift); assay type: cell-based; details: 2 mM; for %Hb O2 Affinity (P50 Shift): normal whole blood 30% hematocrit
T1 construct: normal whole blood (AA) was collected from adult donors; from tissue; host or cells: normal (AA) human whole blood from adult donors, 30% hematocrit
T1 sequence (P69905 2-142 limits assumed): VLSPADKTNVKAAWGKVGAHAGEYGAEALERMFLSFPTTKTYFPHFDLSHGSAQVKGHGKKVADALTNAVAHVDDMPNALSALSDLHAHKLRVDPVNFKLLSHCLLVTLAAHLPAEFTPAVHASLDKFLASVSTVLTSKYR
T1 sequence (P68871 2-147 partner limits assumed): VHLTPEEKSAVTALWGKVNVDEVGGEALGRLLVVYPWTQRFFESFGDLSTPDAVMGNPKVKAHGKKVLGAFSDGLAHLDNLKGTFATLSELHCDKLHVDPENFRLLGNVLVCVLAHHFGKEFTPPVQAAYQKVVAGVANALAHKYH
Method: An oxygen equilibrium curve study was conducted in a time-dependent manner to determine the effect and duration of Pro-7 on Hb affinity for oxygen (P50 shift) following standard procedure. Pro-7, along with the controls TD-7 and DMSO were used for the studies with normal whole blood sample (30% hematocrit). Each compound was incubated with the blood at a final concentration of 2 mM, and aliquot samples were taken at 1, 3, 6, 12 and 24 h and further incubated in IL 237 tonometer (Instrumentation Laboratories, Inc., Lexington, MA, USA) for 10 min at 37 °C, and allowed to equilibrate at oxygen tensions 6, 20, and 40 mmHg. The samples were then aspirated into a Radiometer ABL 800 Automated Blood Gas Analyzer (Copenhagen, Denmark ) to determine the pH, partial pressure of CO2 (pCO2), partial pressure of oxygen (pO2), and Hb oxygen saturation values (SO2). The measured values of pO2 (mmHg) and SO2 at each pO2 value were then subjected to a non-linear regression analysis using the program Scientist (Micromath, Salt Lake City, UT, USA) to estimate P50 as a measure of Hb oxygen affinity as previously reported.
(§1) Human normal whole blood was used to assess the degree of Hb modification and Hb oxygen affinity (P50 shift), while sickle blood was used to investigate RBC sickling inhibition. Pro-7 and the positive control TD-7 were incubated with normal whole blood suspensions. […] For the sickling inhibition study, Pro-7 and the positive control TD-7 were incubated with SS blood suspensions under hypoxic conditions (2.5% O2/97.5% N2), and aliquot blood samples were drawn at three time points (1, 3 and 6 h) and used for assessing RBC morphology. The results summarized in Table 1 and Figure 4A–C show time-dependent effects for all three pharmacodynamic activities. […] Even at the end of the 24-h experiment, Pro-7 activity was still increasing.

[3] = In-vitro stability in different pH buffers (aldehyde peak absorbance at 349 nm); assay type: physicochemical; details: for Stability (absorbance of aldehyde peak at 349 nm): 1 mM, 37 °C
Method: The stability of Pro-7 and the control TD-7 in different pH buffers (PBS buffer at pH 7.4, KCl·HCl buffer at pH 2.0, and Tris buffer at pH 8.0) was evaluated over time as previously reported. The ionic strength of all buffers was kept constant at 150 mM. A 200 mM stock solution of each compound was prepared using anhydrous DMSO. 1 mM solutions of each of the test compounds TD-7 and Pro-7 were prepared in duplicate for each of the three different pH buffers. […]
An in-vitro time-dependent (1–96 h) stability study of Pro-7 was conducted to inform the formulation of the prodrug. The study was conducted at three different pHs: 2.0, 7.4 and 8.0, which mimic stomach, blood and intestinal pH conditions, respectively. The presence of TD-7 or the rate of appearance of TD-7 upon dissociation of Pro-7 was monitored at 349 nm spectrophotometrically.

[4] = target: T1, Hb in human normal whole blood; assay: In-vitro time-dependent Hb modification (Hb adduct formation), cation-exchange HPLC; assay type: cell-based; details: 2 mM; for %Hb Modification (Hb Adduct): normal whole blood 30% hematocrit
Method: Pro-7 and the control TD-7 were used to conduct time-dependent Hb modification (Hb adduct formation) studies using normal whole blood as previously reported. A 200 mM stock solution of each compound was made with DMSO. In a 96-well 1.2 mL polypropylene deep-well plate (Thermo Scientific, Hampshire, UK), 2.0 mM concentration of each compound was added to 600 μL of whole blood (30% hematocrit), which was then incubated at 37 °C for 24 h with shaking (at 140 rpm). A control sample was supplemented only with an equivalent volume of DMSO. At different time points (0–24 h), 50 μL aliquots of this mixture were withdrawn from each well using a multichannel pipette and added to respective tubes containing 50 μL of sodium cyanoborohydride (NaBH3CN) and sodium borohydride (NaBH4) mixture (1:1 v/v 50 mM stock) to terminate the Schiff-base reaction, fix the Schiff-base Hb adducts and reduce the free reactive aldehyde. After mixing, the tubes were stored immediately at −80 °C until ready for analysis using cation-exchange HPLC (Hitachi D-7000 Series, Hitachi Instruments, Inc. San Jose, CA, USA) for Hb-compound adduct formation. The observed Hb adducts in %Hb modification were plotted as a function of time (h).
as §1

COc1ccc(OCc2cccc(CO)n2)c(C=O)c1 [TD-7, 2-((6-(hydroxymethyl)pyridin-2-yl)methoxy)-5-methoxybenzaldehyde]
time of peak effect, RBC sickling inhibition ([1]; SS blood, hypoxia): peaked quickly at the first hour
inhibition at 2000 µM ([1]; 1 h): 76.3%
inhibition at 2000 µM ([1]; 3 h): 59.6%
inhibition at 2000 µM ([1]; 6 h): 54%
time of peak effect, Hb oxygen affinity ([2]; normal whole blood): peaked quickly at the first hour
%Hb O2 Affinity (P50 Shift) ([2]; 1 h): 69.26%
%Hb O2 Affinity (P50 Shift) ([2]; 3 h): 67.42%
%Hb O2 Affinity (P50 Shift) ([2]; 6 h): 49.06%
%Hb O2 Affinity (P50 Shift) ([2]; 12 h): 49.58%
%Hb O2 Affinity (P50 Shift) ([2]; 24 h): 48.56%
Stability (absorbance of aldehyde peak at 349 nm) ([3]; pH 2.0, 0 hr): 3.23 ± 0.08
stability in buffer (in words) ([3]; pH 2.0, 7.4 and 8.0, 96 h experiment): showed stability at all three pHs
Stability (absorbance of aldehyde peak at 349 nm) ([3]; pH 2.0, 1 hr): 3.02 ± 0.00
Stability (absorbance of aldehyde peak at 349 nm) ([3]; pH 2.0, 2 hr): 3.03 ± 0.04
Stability (absorbance of aldehyde peak at 349 nm) ([3]; pH 2.0, 3 hr): 2.97 ± 0.04
Stability (absorbance of aldehyde peak at 349 nm) ([3]; pH 2.0, 6 hr): 2.98 ± 0.01
Stability (absorbance of aldehyde peak at 349 nm) ([3]; pH 2.0, 24 hr): 2.93 ± 0.01
Stability (absorbance of aldehyde peak at 349 nm) ([3]; pH 7.4, 0 hr): 3.05 ± 0.10
Stability (absorbance of aldehyde peak at 349 nm) ([3]; pH 7.4, 1 hr): 2.97 ± 0.01
Stability (absorbance of aldehyde peak at 349 nm) ([3]; pH 7.4, 2 hr): 2.95 ± 0.03
Stability (absorbance of aldehyde peak at 349 nm) ([3]; pH 7.4, 3 hr): 3.09 ± 0.06
Stability (absorbance of aldehyde peak at 349 nm) ([3]; pH 7.4, 6 hr): 2.92 ± 0.02
Stability (absorbance of aldehyde peak at 349 nm) ([3]; pH 7.4, 24 hr): 2.98 ± 0.07
Stability (absorbance of aldehyde peak at 349 nm) ([3]; pH 7.4, 28 hr): 2.90 ± 0.04
Stability (absorbance of aldehyde peak at 349 nm) ([3]; pH 7.4, 48 hr): 3.00 ± 0.05
Stability (absorbance of aldehyde peak at 349 nm) ([3]; pH 7.4, 56 hr): 2.98 ± 0.08
Stability (absorbance of aldehyde peak at 349 nm) ([3]; pH 7.4, 72 hr): 2.92 ± 0.05
Stability (absorbance of aldehyde peak at 349 nm) ([3]; pH 7.4, 96 hr): 2.95 ± 0.03
Stability (absorbance of aldehyde peak at 349 nm) ([3]; pH 8.0, 0 hr): 1.82 ± 0.05
Stability (absorbance of aldehyde peak at 349 nm) ([3]; pH 8.0, 1 hr): 1.79 ± 0.00
Stability (absorbance of aldehyde peak at 349 nm) ([3]; pH 8.0, 2 hr): 1.73 ± 0.01
Stability (absorbance of aldehyde peak at 349 nm) ([3]; pH 8.0, 3 hr): 1.73 ± 0.01
Stability (absorbance of aldehyde peak at 349 nm) ([3]; pH 8.0, 6 hr): 1.71 ± 0.01
Stability (absorbance of aldehyde peak at 349 nm) ([3]; pH 8.0, 24 hr): 1.73 ± 0.02
Stability (absorbance of aldehyde peak at 349 nm) ([3]; pH 8.0, 28 hr): 1.70 ± 0.02
Stability (absorbance of aldehyde peak at 349 nm) ([3]; pH 8.0, 48 hr): 1.68 ± 0.03
Stability (absorbance of aldehyde peak at 349 nm) ([3]; pH 8.0, 72 hr): 1.73 ± 0.03
Stability (absorbance of aldehyde peak at 349 nm) ([3]; pH 8.0, 96 hr): 1.68 ± 0.04
%Hb Modification (Hb Adduct) ([4]; 0 h): 0.00 ± 0.00%
time of peak effect, Hb modification ([4]; normal whole blood): 12 h
%Hb Modification (Hb Adduct) ([4]; 1 h): 25.20 ± 1.20%
%Hb Modification (Hb Adduct) ([4]; 2 h): 23.40 ± 3.50%
%Hb Modification (Hb Adduct) ([4]; 4 h): 41.70 ± 4.30%
%Hb Modification (Hb Adduct) ([4]; 8 h): 47.30 ± 4.70%
%Hb Modification (Hb Adduct) ([4]; 12 h): 48.30 ± 0.50%
%Hb Modification (Hb Adduct) ([4]; 24 h): 43.30 ± 1.90%

Reference: paper PMC10675597, “Design, Synthesis, and Antisickling Investigation of a Thiazolidine Prodrug of TD-7 That Prolongs the Duration of Action of Antisickling Aromatic Aldehyde” (Pharmaceutics, 2023)
